Like-named read-outs stand apart in the source and are kept apart here.
Columns and labels:
[1] = system: Topo II; details: read-out: Topo II IC50; cited from earlier work
[2] = system: HepG-2, HCT-116, MCF-7 and HeLa cells; test: MTT cytotoxicity assay, all four cancer cell lines together; assay type: cell-based; details: for Cytotoxic activity category, all four tested cancer cell lines: category in words by IC50, HepG-2, HCT-116, MCF-7, HeLa
[3] = system: HeLa cells; test: MTT cytotoxicity assay, HeLa; details: Homo sapiens
[4] = system: HCT-116 cells; test: MTT cytotoxicity assay, HCT-116; details: Homo sapiens
[5] = system: MCF-7 cells; test: MTT cytotoxicity assay, MCF-7; details: Homo sapiens
[6] = system: HepG-2 cells; test: MTT cytotoxicity assay, HepG-2; assay type: cell-based; details: Homo sapiens
[7] = target: Topo II; test: In vitro Topo II enzyme inhibition assay; assay type: biochemical; details: read-out: Topo II IC50; mean ± SD
[8] = target: EGFR (Homo sapiens, UniProt P00533); test: biochemical; assay type: biochemical
Chain of EGFR (P00533 25-1210): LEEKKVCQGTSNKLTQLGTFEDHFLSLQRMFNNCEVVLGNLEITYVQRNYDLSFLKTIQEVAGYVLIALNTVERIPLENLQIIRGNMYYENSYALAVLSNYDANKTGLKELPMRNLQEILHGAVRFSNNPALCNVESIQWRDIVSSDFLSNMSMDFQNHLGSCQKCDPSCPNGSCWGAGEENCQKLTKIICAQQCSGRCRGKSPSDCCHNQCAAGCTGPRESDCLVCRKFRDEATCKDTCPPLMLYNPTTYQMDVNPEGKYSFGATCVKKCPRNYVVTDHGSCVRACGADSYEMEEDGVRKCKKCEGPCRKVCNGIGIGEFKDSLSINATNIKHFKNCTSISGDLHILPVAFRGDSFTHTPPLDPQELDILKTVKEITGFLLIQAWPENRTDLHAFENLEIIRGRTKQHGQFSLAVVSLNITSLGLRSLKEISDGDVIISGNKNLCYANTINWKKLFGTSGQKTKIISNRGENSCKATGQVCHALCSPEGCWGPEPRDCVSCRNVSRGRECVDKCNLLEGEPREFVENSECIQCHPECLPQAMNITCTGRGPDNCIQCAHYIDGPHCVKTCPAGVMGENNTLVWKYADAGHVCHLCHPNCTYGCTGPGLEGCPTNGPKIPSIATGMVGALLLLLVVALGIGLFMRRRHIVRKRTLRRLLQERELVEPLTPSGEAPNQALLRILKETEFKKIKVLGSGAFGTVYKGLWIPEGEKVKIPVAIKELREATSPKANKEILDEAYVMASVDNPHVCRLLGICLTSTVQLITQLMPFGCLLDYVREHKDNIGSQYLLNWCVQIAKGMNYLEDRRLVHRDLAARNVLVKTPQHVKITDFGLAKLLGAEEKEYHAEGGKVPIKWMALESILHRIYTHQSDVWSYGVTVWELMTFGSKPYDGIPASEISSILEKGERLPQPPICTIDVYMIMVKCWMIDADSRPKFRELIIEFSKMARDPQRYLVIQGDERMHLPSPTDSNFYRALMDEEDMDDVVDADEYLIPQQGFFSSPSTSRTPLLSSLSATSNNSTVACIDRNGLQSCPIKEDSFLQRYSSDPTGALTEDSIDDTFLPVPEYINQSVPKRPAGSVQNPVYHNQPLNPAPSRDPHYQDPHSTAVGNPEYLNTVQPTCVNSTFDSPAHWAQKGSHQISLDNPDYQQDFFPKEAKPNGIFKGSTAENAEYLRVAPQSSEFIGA

[9] = system: WI-38 cell line; test: In vitro cytotoxicity against normal WI-38 cell line; assay type: cell-based; details: Homo sapiens, WI-38, read-out: Normal cells IC50 WI-38
[10] = target: VEGFR-2 (Homo sapiens, UniProt P35968); test: In vitro VEGFR-2 enzyme inhibition assay; assay type: biochemical
Chain of VEGFR-2 (P35968 20-1356): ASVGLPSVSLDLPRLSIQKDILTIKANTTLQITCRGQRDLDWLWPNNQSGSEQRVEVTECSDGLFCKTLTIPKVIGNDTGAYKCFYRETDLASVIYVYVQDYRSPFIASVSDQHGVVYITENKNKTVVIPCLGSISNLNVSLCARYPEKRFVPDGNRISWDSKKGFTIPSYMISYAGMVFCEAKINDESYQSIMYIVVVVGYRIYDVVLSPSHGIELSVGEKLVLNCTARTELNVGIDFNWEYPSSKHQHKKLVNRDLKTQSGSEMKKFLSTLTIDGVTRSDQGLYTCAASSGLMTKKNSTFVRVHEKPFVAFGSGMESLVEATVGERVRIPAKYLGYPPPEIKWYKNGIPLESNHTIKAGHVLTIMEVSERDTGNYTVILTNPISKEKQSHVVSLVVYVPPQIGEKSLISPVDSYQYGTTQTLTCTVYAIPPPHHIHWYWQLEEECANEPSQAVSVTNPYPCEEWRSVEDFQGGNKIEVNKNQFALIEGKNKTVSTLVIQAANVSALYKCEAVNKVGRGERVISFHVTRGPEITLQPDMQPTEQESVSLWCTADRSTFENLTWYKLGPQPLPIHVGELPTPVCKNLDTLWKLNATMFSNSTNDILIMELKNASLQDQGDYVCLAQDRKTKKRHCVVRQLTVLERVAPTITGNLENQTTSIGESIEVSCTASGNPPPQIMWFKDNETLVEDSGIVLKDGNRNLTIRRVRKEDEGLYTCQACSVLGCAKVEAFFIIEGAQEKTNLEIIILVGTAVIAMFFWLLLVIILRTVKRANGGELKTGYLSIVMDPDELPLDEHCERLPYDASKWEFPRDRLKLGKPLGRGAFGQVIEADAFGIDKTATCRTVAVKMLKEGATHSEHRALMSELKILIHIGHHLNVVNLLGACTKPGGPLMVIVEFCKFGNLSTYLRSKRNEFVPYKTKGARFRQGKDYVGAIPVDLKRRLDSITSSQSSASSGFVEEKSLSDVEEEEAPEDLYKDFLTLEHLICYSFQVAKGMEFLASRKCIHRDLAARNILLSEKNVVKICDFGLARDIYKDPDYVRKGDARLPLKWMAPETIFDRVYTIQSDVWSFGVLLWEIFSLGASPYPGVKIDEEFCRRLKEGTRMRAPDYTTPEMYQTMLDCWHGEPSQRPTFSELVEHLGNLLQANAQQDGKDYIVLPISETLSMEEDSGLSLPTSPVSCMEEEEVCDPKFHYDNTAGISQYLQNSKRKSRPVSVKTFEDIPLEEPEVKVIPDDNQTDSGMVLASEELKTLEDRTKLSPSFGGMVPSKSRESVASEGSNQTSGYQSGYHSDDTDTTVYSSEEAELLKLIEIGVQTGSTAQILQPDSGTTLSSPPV

[11] = system: HepG-2 cells; test: Annexin V-FITC/PI apoptosis assay; assay type: cell-based; details: HepG-2, 24 h
[12] = system: HepG-2 cells; test: Flow cytometry cell cycle analysis; assay type: cell-based; details: HepG-2, PI staining
[13] = target: EGFR, VEGFR-2, and Topo II; test: In vitro enzyme inhibition assays, three enzymes together; assay type: biochemical; details: read-out: IC50 range on EGFR, VEGFR-2, and Topo II; range over the three enzymes
[14] = target: Topoisomerase II (Topo II); details: read-out: Topo II IC50; cited from earlier work
[15] = system: Topo IIB; details: read-out: Topo IIB IC50; cited from earlier work
[16] = 48 h, read-out: In vitro Cytotoxicity IC50 HeLa
[17] = HCT-116, 48 h, read-out: In vitro Cytotoxicity IC50 HCT-116
[18] = MCF7, 48 h, read-out: In vitro Cytotoxicity IC50 MCF-7
[19] = HepG2, 48 h, read-out: In vitro Cytotoxicity IC50 HepG-2
[20] = read-out: Cytotoxic activity category, HeLa
[21] = HCT-116, read-out: Cytotoxic activity category, HCT-116
[22] = MCF7, read-out: Cytotoxic activity category, MCF-7
[23] = HepG2, read-out: Cytotoxic activity category, HepG-2
[24] = read-out: Cytotoxic activity category, all four tested cancer cell lines
[25] = read-out: IC50 range over the four cancer cell lines

Row | Compound | IC50 [3, 16] [µM] | IC50 [4, 17] [µM] | IC50 [5, 18] [µM] | IC50 [6, 19] [µM] | other results
1 | 2-phenylthiomethylbenzimidazole [VI] |  |  |  |  | IC50 [1]: 17 µM
2 | Cc1c(C(=O)NNC(=O)Nc2cccc3ccccc23)nnn1Cc1nc2ccccc2[nH]1 [Compound 5c, 2-{1-[(1h-Benzo[d]imidazol-2-yl)methyl]-5-methyl-1H-1,2,3-triazole-4-carbonyl}-N-(naphthalen-1-yl)hydrazinecarboxamide] | 27.6 ± 2 | 59.2 ± 3.3 | 45.4 ± 2.9 | 67.4 ± 3.5 | Cytotoxic activity category, all four tested cancer cell lines [2]: weak to moderate
3 | Cc1c(C(=O)NNC(=S)Nc2ccccc2)nnn1Cc1nc2ccccc2[nH]1 [Compound 5d, 2-{1-[(1h-Benzo[d]imidazol-2-yl)methyl]-5-methyl-1H-1,2,3-triazole-4-carbonyl}-N-phenylhydrazinecarbothioamide] | 12.4 ± 0.9 | 41.4 ± 2.8 | 30.8 ± 2.3 | 57.2 ± 3.2 | IC50 [3, 20]: 11 to 20 µM; IC50 [4, 21]: 21 to 50 µM; IC50 [5, 22]: 21 to 50 µM; IC50 [6, 23]: 51 to 100 µM
4 | Cc1ccc(NC(=S)NNC(=O)c2nnn(Cc3nc4ccccc4[nH]3)c2C)cc1 [Compound 5f, 2-{1-[(1h-Benzo[d]imidazol-2-yl)methyl]-5-methyl-1H-1,2,3-triazole-4-carbonyl}-N-(p-tolyl)hydrazinecarbothioamide] | 58.1 ± 3.1 | 68.5 ± 3.7 | 64.1 ± 3.3 | 72.7 ± 3.8 | 
5 | COc1ccc(NC(=S)NNC(=O)c2nnn(Cc3nc4ccccc4[nH]3)c2C)cc1 [Compound 5g, 2-{1-[(1h-Benzo[d]imidazol-2-yl)methyl]-5-methyl-1H-1,2,3-triazole-4-carbonyl}-N-(4-methoxyphenyl)hydrazinecarbothioamide] | 8.7 ± 0.6 | 18.7 ± 1.5 | 9.39 ± 0.8 | 13.6 ± 1 | 
6 | Cc1c(C(=O)NNC(=O)Nc2ccccc2)nnn1Cc1nc2ccccc2[nH]1 [Compound 5h, 2-{1-[(1h-Benzo[d]imidazol-2-yl)methyl]-5-methyl-1H-1,2,3-triazole-4-carbonyl}-N-phenylhydrazinecarboxamide] | 31.6 ± 2.3 | 54.8 ± 3 | 38 ± 2.6 | 42.1 ± 2.7 | Cytotoxic activity category, all four tested cancer cell lines [2]: weak to moderate
7 | Cc1c(C(=O)N/N=C/c2ccc(Cl)cc2)nnn1Cc1nc2ccccc2[nH]1 [Compound 6a, (E)-1-[(1H-Benzo[d]imidazol-2-yl)methyl]-N′-(4-chlorobenzylidene)-5-methyl-1H-1,2,3-triazole-4-carbohydrazide] | 35.3 ± 2.5 | 28.2 ± 2.5 | 39.5 ± 2.6 | 47 ± 2.8 | IC50 [2, 24]: 21 to 50 µM; IC50 [2, 25]: 28.2 to 47 µM
8 | Cc1c(C(=O)N/N=C/c2ccccc2)nnn1Cc1nc2ccccc2[nH]1 [Compound 6b, (E)-1-[(1H-Benzo[d]imidazol-2-yl)methyl]-N′-benzylidene-5-methyl-1H-1,2,3-triazole-4-carbohydrazide] | 61.2 ± 3.4 | 75.1 ± 3.8 | 57.6 ± 3.3 | 84.5 ± 4.1 | 
9 | Cc1c(C(=O)N/N=C/c2cccc(Br)c2)nnn1Cc1nc2ccccc2[nH]1 [Compound 6c, (E)-1-[(1H-Benzo[d]imidazol-2-yl)methyl]-N′-(3-bromobenzylidene)-5-methyl-1H-1,2,3-triazole-4-carbohydrazide] | 48.8 ± 2.8 | 63.6 ± 3.3 | 44.8 ± 2.9 | 56.3 ± 3.2 | 
10 | Cc1c(C(=O)N/N=C/c2cccc([N+](=O)[O-])c2)nnn1Cc1nc2ccccc2[nH]1 [Compound 6d, (E)-1-[(1H-Benzo[d]imidazol-2-yl)methyl]-5-methyl-N′-(3-nitrobenzylidene)-1H-1,2,3-triazole-4-carbohydrazide] | 52.2 ± 3.1 | 36.5 ± 2.7 | 48.2 ± 3 | 71.5 ± 3.6 | 
11 | COc1ccc(/C=N/NC(=O)c2nnn(Cc3nc4ccccc4[nH]3)c2C)cc1OC [Compound 6e, (E)-1-[(1H-Benzo[d]imidazol-2-yl)methyl]-N′-(3,4-dimethoxybenzylidene)-5-methyl-1H-1,2,3-triazole-4-carbohydrazide] | 29.1 ± 2.3 | 19.7 ± 1.7 | 23.7 ± 1.9 | 33.6 ± 2.3 | IC50 [3, 20]: 21 to 50 µM; IC50 [4, 21]: 11 to 20 µM; IC50 [5, 22]: 21 to 50 µM; IC50 [6, 23]: 21 to 50 µM
12 | Cc1c(C(=O)N/N=C/c2ccc(N(C)C)cc2)nnn1Cc1nc2ccccc2[nH]1 [Compound 6f, (E)-1-[(1H-Benzo[d]imidazol-2-yl)methyl]-N′-[4-(dimethylamino)benzylidene]-5-methyl-1H-1,2,3-triazole-4-carbohydrazide] | 22.8 ± 1.9 | 11.7 ± 0.9 | 14.7 ± 1.1 | 18.3 ± 1.5 | IC50 [3, 20]: 21 to 50 µM; IC50 [4, 21]: 11 to 20 µM; IC50 [5, 22]: 11 to 20 µM; IC50 [6, 23]: 11 to 20 µM
13 | COc1cc(/C=N/NC(=O)c2nnn(Cc3nc4ccccc4[nH]3)c2C)ccc1O [Compound 6g, (E)-1-[(1H-Benzo[d]imidazol-2-yl)methyl]-N′-(4-hydroxy-3-methoxybenzylidene)-5-methyl-1H-1,2,3-triazole-4-carbohydrazide] | 9.84 ± 0.7 | 3.34 ± 0.4 | 7.11 ± 0.5 | 10.9 ± 0.8 | IC50 [7]: 8.37 ± 0.49 µM; IC50 [2, 24]: 1 to 10 µM; IC50 [2, 25]: 3.34 to 10.9 µM; Activity relative to Gefitinib against EGFR [8]: ~40%; IC50 [8]: 0.131 ± 0.005 µM; IC50 [9]: 43.3 ± 2.6 µM; Activity relative to Sorafenib against VEGFR-2 [10]: 21%; Apoptosis Early (Q4) [11]: 11.02%; Apoptosis Late (Q2) [11]: 19.85%; Apoptosis Total [11]: 30.87%; Necrosis (Q1) [11]: 5.41%; Cell cycle distribution G0-G1 [12]: 38.91%; Cell cycle distribution G2/M [12]: 33.81%; Cell cycle distribution Pre-G1 [12]: 36.28%; Cell cycle distribution S [12]: 27.28%; IC50 [13]: 0.131 to 8.37 µM
14 | CN1CCN(c2ccc3nc(-c4c(N)c5c(F)cccc5[nH]c4=O)[nH]c3c2)CC1 [Dovitinib] |  |  |  |  | IC50 [14]: 13 µM
15 | COc1cccc2c1C(=O)c1c(O)c3c(c(O)c1C2=O)C[C@@](O)(C(=O)CO)C[C@@H]3O[C@H]1C[C@H](N)[C@H](O)[C@H](C)O1 [Dox, Doxorubicin, reference compound] |  |  |  | 4.5 ± 0.2 | IC50 [2, 25]: 4.17 to 5.57 µM; IC50 [15]: 0.83 µM
